Laboratory results published in US8431533B2, “GLP-1 fusion peptides, their production and use” (Biocompatibles UK Ltd., priority 2005, dated 2013).
Where two headings read alike, the source gives them in different places. Ends that are not written are not given here.

How the values were obtained:
[1] = target: T1, DPPIV (Homo sapiens, UniProt P27487); assay: In vitro plasma stability of GLP1CM peptides (kinetic test method); details: 10% human plasma; for remaining at 9 h, 1 μM: human, pH 7.8; for DT80: time needed to degrade active GLP-1 to 80% of the 0 h value, 1 μM peptide
Target sequence in this assay (P27487 39-766 limits assumed): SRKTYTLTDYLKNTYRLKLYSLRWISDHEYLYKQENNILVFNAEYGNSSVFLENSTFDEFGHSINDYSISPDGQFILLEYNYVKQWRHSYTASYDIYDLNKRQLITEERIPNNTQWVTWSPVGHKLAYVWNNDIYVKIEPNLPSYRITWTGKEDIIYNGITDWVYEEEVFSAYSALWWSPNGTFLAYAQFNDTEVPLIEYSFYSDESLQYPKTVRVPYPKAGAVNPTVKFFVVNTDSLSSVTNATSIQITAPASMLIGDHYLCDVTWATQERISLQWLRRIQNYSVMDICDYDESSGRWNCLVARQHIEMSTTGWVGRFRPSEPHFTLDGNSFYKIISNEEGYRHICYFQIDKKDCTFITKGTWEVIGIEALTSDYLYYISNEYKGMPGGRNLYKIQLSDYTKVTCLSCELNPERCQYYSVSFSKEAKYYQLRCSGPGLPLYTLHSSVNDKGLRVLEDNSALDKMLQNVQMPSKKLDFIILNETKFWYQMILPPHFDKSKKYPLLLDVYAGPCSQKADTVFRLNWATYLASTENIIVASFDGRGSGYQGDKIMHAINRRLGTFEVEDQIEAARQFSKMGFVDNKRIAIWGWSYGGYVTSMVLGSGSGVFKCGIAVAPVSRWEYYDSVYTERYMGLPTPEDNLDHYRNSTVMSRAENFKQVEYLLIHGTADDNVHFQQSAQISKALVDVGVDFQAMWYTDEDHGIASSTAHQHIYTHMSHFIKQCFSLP
Description: (§1) Results are from triplicates in at least two independent experiments.

[2] = target: T1, DPPIV
Target sequence in this assay (P27487 39-766 limits assumed): as above
Description: as §1

[3] = target: T1, DPPIV; assay: in vitro; details: plasma, pH 7.8
Target sequence in this assay (P27487 39-766 limits assumed): as above
Description: as §1

[4] = target: T1, DPPIV; assay: In vitro plasma stability of GLP-1 peptides secreted from human cells; assay type: in vitro ADME; design: human lymphocyte enriched plasma containing dipeptidylpeptidase activity; from tissue; host or cells: human lymphocyte enriched plasma; details: human lymphocyte enriched plasma, 37° C., 3 or 4 hours
Description: HEK293 and hTERT-MSC cells were transiently transfected with constructs, encoding the heterologous stromelysin signal sequence, which is linked to GLP-1 variants encoding the following peptides: […]
Target sequence in this assay (P27487 whole entry): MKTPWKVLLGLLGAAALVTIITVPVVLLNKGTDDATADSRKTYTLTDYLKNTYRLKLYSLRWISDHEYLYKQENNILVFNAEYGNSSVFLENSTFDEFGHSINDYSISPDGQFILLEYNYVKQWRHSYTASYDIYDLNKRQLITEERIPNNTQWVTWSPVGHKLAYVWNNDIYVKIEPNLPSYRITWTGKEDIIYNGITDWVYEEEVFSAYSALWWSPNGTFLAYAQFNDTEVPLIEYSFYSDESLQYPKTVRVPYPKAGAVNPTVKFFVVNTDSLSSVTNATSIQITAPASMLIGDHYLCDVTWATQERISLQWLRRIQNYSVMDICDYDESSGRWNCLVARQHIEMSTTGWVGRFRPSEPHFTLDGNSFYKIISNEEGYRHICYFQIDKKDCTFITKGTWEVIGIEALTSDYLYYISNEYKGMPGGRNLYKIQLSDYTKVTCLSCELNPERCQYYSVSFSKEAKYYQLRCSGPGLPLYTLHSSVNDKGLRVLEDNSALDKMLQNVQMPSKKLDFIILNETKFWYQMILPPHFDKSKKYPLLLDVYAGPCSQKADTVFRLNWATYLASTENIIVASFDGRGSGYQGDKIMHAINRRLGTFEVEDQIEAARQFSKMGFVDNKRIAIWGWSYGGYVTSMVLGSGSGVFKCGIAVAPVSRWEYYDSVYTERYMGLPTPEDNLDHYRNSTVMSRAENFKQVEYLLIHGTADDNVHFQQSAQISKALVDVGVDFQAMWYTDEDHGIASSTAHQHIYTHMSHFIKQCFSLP

[5] = system: type II diabetic mice (C57BL/Ks-Lepr^db/db); assay: In vivo bioactivity, blood glucose in type II diabetic mice; details: 5 μg peptide s.c. twice a day, day 2, 4, 7, 10, after overnight fast
Procedure: 11-week-old type II diabetic mice (C57BL/Ks-Lepr^db/db, Harlan) were treated with 5 μg peptide by subcutaneous injection twice a day at 9 a.m. and 5 p.m. (n=5 per group). Blood glucose was measured before (day 0) and after treatment with GLP^CM peptides (Day 2, 4, 7, 10) at 10 a.m. after an overnight fastening period. Data were presented in relation to blood glucose levels measured at day 0.

[6] = system: diabetic C57BL/KsJ@Rj-db (db/db) mice; assay: Dose-efficacy study in diabetic mice; assay type: in vivo
Procedure: A sixth group was treated with saline only. 7 animals were treated per group. Blood glucose was determined from tail bleeds directly before, 1 hour and 4 hours after injection. […] For every test substance a graph was prepared with the percentage difference of the blood glucose in relation to the start value for the different concentrations. […] Both models are sigmoidal fit models suitable for dose response evaluation.

[7] = system: C57BL/KsJ@Rj-db (db/db) mice; assay: Long-term treatment of db/db mice; assay type: in vivo
Procedure: Blood glucose was measured from a tail bleed after a 12-hour overnight fast 18 hours after s.c. injection of the test substances. […] The serum was analysed for insulin with the Insulin Mouse Ultrasensitive ELISA (Cat.#EIA-3440, DRG).

[8] = system: BALB/c mice; assay: In vivo study, immunogenicity; details: 5 repeated injections, 70 μg peptide/dose, i.v., over 22 d
Procedure: The trial was done in BALB/c mice receiving 5 repeated injections (70 μg peptide/dose, i.v.) over 22 d (n=5).
Spleens of the treated and control mice were explanted, T-cells isolated and stimulated with increasing amounts of antigene. Proliferative recall response is measured.

[9] = In vitro human plasma stability of GLP-1CM peptides; details: 20 ng/ml, 37° C., 3 hours, GLP-1 (Active) ELISA
Description: Dipeptidylpeptidase activity of the plasma was inhibited by an DPP-IV inhibitor (#DPP4, Biotrend).

Molecule: CC[C@H](C)[C@H](NC(=O)[C@H](Cc1ccccc1)NC(=O)[C@H](CCC(=O)O)NC(=O)[C@H](CCCCN)NC(=O)[C@H](C)NC(=O)[C@H](C)NC(=O)[C@H](CCC(N)=O)NC(=O)CNC(=O)[C@H](CCC(=O)O)NC(=O)[C@H](CC(C)C)NC(=O)[C@H](Cc1ccc(O)cc1)NC(=O)[C@H](CO)NC(=O)[C@H](CO)NC(=O)[C@@H](NC(=O)[C@H](CC(=O)O)NC(=O)[C@H](CO)NC(=O)[C@@H](NC(=O)[C@H](Cc1ccccc1)NC(=O)[C@@H](NC(=O)CNC(=O)[C@H](CCC(=O)O)NC(=O)[C@H](C)NC(=O)[C@@H](N)Cc1c[nH]cn1)[C@@H](C)O)[C@@H](C)O)C(C)C)C(=O)N[C@@H](C)C(=O)N[C@@H](Cc1c[nH]c2ccccc12)C(=O)N[C@@H](CC(C)C)C(=O)N[C@H](C(=O)N[C@@H](CCCCN)C(=O)NCC(=O)N[C@@H](CCCNC(=N)N)C(=O)NCC(=O)N[C@@H](CCCNC(=N)N)C(=O)N[C@@H](CCCNC(=N)N)C(=O)N[C@@H](CC(=O)O)C(=O)N[C@@H](Cc1ccccc1)C(=O)N1CCC[C@H]1C(=O)O)C(C)C [CM3-ANA06, reference compound]
- remaining at 9 h, 1 μM [1]: 11%
- DT80 ([1]; 37° C.): 0.9 h

Molecule: CC[C@H](C)[C@H](NC(=O)[C@H](Cc1ccccc1)NC(=O)[C@H](CCC(=O)O)NC(=O)[C@H](CCCCN)NC(=O)[C@H](C)NC(=O)[C@H](C)NC(=O)[C@H](CCC(N)=O)NC(=O)CNC(=O)[C@H](CCC(=O)O)NC(=O)[C@H](CC(C)C)NC(=O)[C@H](Cc1ccc(O)cc1)NC(=O)[C@H](CO)NC(=O)[C@H](CO)NC(=O)[C@@H](NC(=O)[C@H](CC(=O)O)NC(=O)[C@H](CO)NC(=O)[C@@H](NC(=O)[C@H](Cc1ccccc1)NC(=O)[C@@H](NC(=O)CNC(=O)[C@H](CCC(=O)O)NC(=O)[C@H](C)NC(=O)[C@@H](N)Cc1c[nH]cn1)[C@@H](C)O)[C@@H](C)O)C(C)C)C(=O)N[C@@H](C)C(=O)N[C@@H](Cc1c[nH]c2ccccc12)C(=O)N[C@@H](CC(C)C)C(=O)N[C@H](C(=O)N[C@@H](CCCCN)C(=O)NCC(=O)N[C@@H](CCCNC(=N)N)C(=O)NCC(=O)N[C@@H](CCCNC(=N)N)C(=O)N[C@@H](CCCNC(=N)N)C(=O)N[C@@H](CC(=O)O)C(=O)N[C@@H](Cc1ccccc1)C(=O)N1CCC[C@H]1C(=O)N[C@@H](CCC(=O)O)C(=O)N[C@@H](CCC(=O)O)C(=O)N[C@H](C(=O)N[C@@H](C)C(=O)O)C(C)C)C(C)C [CM3-ANA07]
- DT80 [2]: 2.0 h
- remaining at 9 h, 1 μM [3]: 37%

Molecule: GLP1(7-37)-IP2-GLP1(7-37) [compound 3]
- resistance to DPP-IV degradation [4]: nearly fully stabilised to DPP-IV degradation in vitro

Molecule: GLP-1(7-37) [compound 1, reference compound]
- resistance to DPP-IV degradation [4]: inactivated by DPP-IV in a similar way to synthetic GLP-1

Molecule: GLP-1(7-37)-IP2-RR-GLP1(7-37) [CM1]
- anti-hyperglycemia effect (blood glucose in relation to day 0) [5]: Best results
- anti-hyperglycemia effect (blood glucose in relation to day 0) ([5]; listed as SEQ ID No.:6): anti-hyperglycemia effect
- fall in plasma glucose @1 h ([6]; 1 hour after single s.c. injection of 1.1-3.0 nmol peptide, versus control): 50% ± 14%@1 h
- fall in plasma glucose @4 h ([6]; 4 hours after single s.c. injection of 1.1-3.0 nmol peptide, versus control): 0%@4 h
- ED50 (plasma glucose) ([6]; single s.c. dose, percentage decrease of blood glucose at 1 h, sigmoidal fit): 0.61 μg/mouse
- fasted blood glucose level ([7]; 12-hour overnight fast, 18 h after peptide injection): reduced
- non fasted blood glucose level compared to control ([7]; 1 h after s.c. peptide injection, 24 nmol/kg): 55%
- food consumption ([7]; weekly, 122 day treatment period, compared to the control, p<0.001): significantly lower
- toxicity [8]: no toxicity

Molecule: HAEGTFTSDVSSYLEGQAAKEFIAWLVKGRGAADAAAAVAIAAALG [CM3-ANA04]
- remaining at 9 h, 1 μM [1]: 65%
- DT80 ([1]; 37° C.): 4.7 h

Molecule: HAEGTFTSDVSSYLEGQAAKEFIAWLVKGRGAADFPEEVAIAEELG [CM3-ANA01]
- DT80 [2]: 12.5 h
- in vitro plasma stability, comparison [2]: higher plasma stability than CM3

Molecule: HAEGTFTSDVSSYLEGQAAKEFIAWLVKGRGRRDAAAAVAIAEELG [CM3-ANA03]
- in vitro plasma stability, comparison ([1]; 37° C.): strongly reduced stability compared to CM3
- remaining at 9 h, 1 μM [1]: 30%
- DT80 ([1]; 37° C.): 1.6 h

Molecule: HAEGTFTSDVSSYLEGQAAKEFIAWLVKGRGRRDFAEEVAIAEELG [CM3-ANA02]
- remaining at 9 h, 1 μM [1]: 65%
- DT80 ([1]; 37° C.): 4.5 h

Molecule: HAEGTFTSDVSSYLEGQAAKEFIAWLVKGRGRRDFPEEVAIAEELG [CM3]
- stability in human plasma in vitro [9]: significantly stabilized
- DT80 ([1]; 37° C.): 4.4 h

Molecule: HAEGTFTSDVSSYLEGQAAKEFIAWLVKGRGRRDFPEEVAIAEELGRRHAC [CM3-ANA09]
- DT80 [2]: 4.2 h
- remaining at 9 h, 1 μM [3]: 60%

B1: GLP-1(7-37)-IP2-RR-GLP2 (peptide)
chain: HAEGTFTSDVSSYLEGQAAKEFIAWLVKGRGRRDFPEEVAIAEELGRRHADGSFSDEMSTILDNLATRDFINWLIQTKITDKK
- anti-hyperglycemia effect (blood glucose in relation to day 0) [5]: anti-hyperglycemia effect
- stability in human plasma in vitro [9]: significantly stabilized
